{"source": "PubChem BioAssay AID2615", "about": "(Southern Research Specialized Biocontainment Screening …, 2010)", "system": "BSC cells SV40 infection, CPE inhibition", "experiment": "antiviral efficacy and BSC cell toxicity – BSC cells, SV40 T antigen inhibitor project, confirmation (AID 2615)", "settings": "measured here: cytotoxicity in BSC cells"}
{"smiles": "ClC(Cl)(c1nnnn1-c1ccccc1)c1nnnn1-c1ccccc1", "values": [{"measurement": "TC50", "result": 34, "unit": "µM"}]}
